ChEMBL document CHEMBL1143801, “Synthesis, SAR and antibacterial studies on novel chalcone oxazolidinone hybrids” (2007)
Values after ≈ are worked out from the molar mass of the structure shown.

Key:
Format in all cases: functional
[1] = system: Enterococcus faecalis; experiment: Antibacterial activity against Enterococcus faecalis NCTC 12201
[2] = system: Staphylococcus aureus; experiment: Antibacterial activity against Staphylococcus aureus ATCC 29213
[3] = system: Staphylococcus aureus; experiment: Antibacterial activity against Staphylococcus aureus ATCC 49951
[4] = system: Enterococcus faecium; experiment: Antibacterial activity against Enterococcus faecium ATCC 12202
[5] = system: Enterococcus faecalis; experiment: Antibacterial activity against Enterococcus faecalis ATCC 29212
[6] = system: Staphylococcus aureus; experiment: Antibacterial activity against Staphylococcus aureus ATCC 33591

| SMILES | MIC [1] [µg/mL] | MIC [2] [µg/mL] | MIC [3] [µg/mL] | MIC [4] [µg/mL] | MIC [5] [µg/mL] | MIC [6] [µg/mL] |
| --- | --- | --- | --- | --- | --- | --- |
| COC(=O)c1ccc(/C=C/C(=O)c2ccc(N3C[C@H](CNC(C)=O)OC3=O)cc2)cc1 | > 32 | > 32 | > 32 | > 32 | > 32 | > 32 |
| CC(=O)NC[C@H]1CN(c2ccc(C(=O)/C=C/c3ccco3)c(F)c2)C(=O)O1 | 16 (≈ 43 µM) | 8 (≈ 21.5 µM) | 8 (≈ 21.5 µM) | 16 (≈ 43 µM) | 16 (≈ 43 µM) | 8 (≈ 21.5 µM) |
| COc1ccc(C(=O)/C=C/c2ccc(N3C[C@H](CNC(C)=O)OC3=O)cc2)cc1 | > 32 | > 32 | > 32 | > 32 | > 32 | > 32 |
| COc1cc(/C=C/C(=O)c2ccc(N3C[C@H](CNC(C)=O)OC3=O)cc2)cc(OC)c1OC | > 32 | > 32 | > 32 | > 32 | > 32 | > 32 |
| CC(=O)NC[C@H]1CN(c2ccc(C(=O)/C=C/c3ccccn3)cc2)C(=O)O1 | 64 (≈ 175 µM) | 32 (≈ 87.6 µM) | 32 (≈ 87.6 µM) | 64 (≈ 175 µM) | 64 (≈ 175 µM) | 32 (≈ 87.6 µM) |
| CC(=O)NC[C@H]1CN(c2ccc(C(=O)/C=C/c3ccccn3)c(F)c2)C(=O)O1 | 16 (≈ 41.7 µM) | 8 (≈ 20.9 µM) | 4 (≈ 10.4 µM) | 16 (≈ 41.7 µM) | 16 (≈ 41.7 µM) | 4 (≈ 10.4 µM) |
| CC(=O)NC[C@H]1CN(c2ccc(/C=C/C(=O)c3cccc(F)c3)cc2)C(=O)O1 | > 64 | > 64 | > 64 | > 64 | > 64 | 64 (≈ 167 µM) |
| CC(=O)NC[C@H]1CN(c2ccc(C(=O)/C=C/c3ccc(F)cc3)cc2)C(=O)O1 | > 32 | > 32 | > 32 | > 32 | > 32 | > 32 |
| CC(=O)NC[C@H]1CN(c2ccc(/C=C/C(=O)c3ccccc3)cc2)C(=O)O1 | > 32 | > 32 | > 32 | > 32 | > 32 | > 32 |
| COc1ccc(/C=C/C(=O)c2ccc(N3C[C@H](CNC(C)=O)OC3=O)cc2)cc1OC | > 32 | > 32 | > 32 | > 32 | > 32 | > 32 |
| CC(=O)NC[C@H]1CN(c2ccc(C(=O)/C=C/c3nccn3C)c(F)c2)C(=O)O1 | 32 (≈ 82.8 µM) | 32 (≈ 82.8 µM) | 32 (≈ 82.8 µM) | 32 (≈ 82.8 µM) | 32 (≈ 82.8 µM) | 32 (≈ 82.8 µM) |
| CC(=O)NC[C@H]1CN(c2ccc(C(=O)/C=C/c3ncc[nH]3)c(F)c2)C(=O)O1 | 16 (≈ 43 µM) | 16 (≈ 43 µM) | 16 (≈ 43 µM) | 16 (≈ 43 µM) | 16 (≈ 43 µM) | 16 (≈ 43 µM) |
| CC(=O)NC[C@H]1CN(c2ccc(C(=O)/C=C/c3ccccc3)cc2)C(=O)O1 | > 32 | > 32 | > 32 | > 32 | > 32 | > 32 |
| CC(=O)NC[C@H]1CN(c2ccc(C(=O)/C=C/c3cccs3)c(F)c2)C(=O)O1 | 32 (≈ 82.4 µM) | 32 (≈ 82.4 µM) | 32 (≈ 82.4 µM) | 32 (≈ 82.4 µM) | 32 (≈ 82.4 µM) | 32 (≈ 82.4 µM) |
| COC(=S)NC[C@H]1CN(c2ccc(C(=O)/C=C/c3ccccn3)c(F)c2)C(=O)O1 | 1 (≈ 2.41 µM) | 0.5 (≈ 1.2 µM) | 1 (≈ 2.41 µM) | 2 (≈ 4.81 µM) | 2 (≈ 4.81 µM) | 0.25 (≈ 0.602 µM) |
| CC(=O)NC[C@H]1CN(c2ccc(/C=C/C(=O)c3ccc(C)cc3)cc2)C(=O)O1 | 32 (≈ 84.6 µM) | > 32 | 32 (≈ 84.6 µM) | 32 (≈ 84.6 µM) | 32 (≈ 84.6 µM) | 32 (≈ 84.6 µM) |
| CN[C@H](CC(C)C)C(=O)N[C@H]1C(=O)N[C@@H](CC(N)=O)C(=O)N[C@H]2C(=O)N[C@H]3C(=O)N[C@H](C(=O)N[C@H](C(=O)O)c4cc(O)cc(O)c4-c4cc3ccc4O)[C@H](O)c3ccc(c(Cl)c3)Oc3cc2cc(c3O[C@@H]2O[C@H](CO)[C@@H](O)[C@H](O)[C@H]2O[C@H]2C[C@](C)(N)[C@H](O)[C@H](C)O2)Oc2ccc(cc2Cl)[C@H]1O [VANCOMYCIN] | > 32 |  |  | > 32 | 2 (≈ 1.38 µM) |  |
| CC(=O)NC[C@H]1CN(c2ccc(N3CCOCC3)c(F)c2)C(=O)O1 [LINEZOLID] |  |  |  | 2 (≈ 5.93 µM) |  | 1 (≈ 2.96 µM) |
| CC(=O)NC[C@H]1CN(c2ccc(C(=O)/C=C/c3ccco3)cc2)C(=O)O1 | 32 (≈ 90.3 µM) | 16 (≈ 45.2 µM) | 16 (≈ 45.2 µM) | 32 (≈ 90.3 µM) | 32 (≈ 90.3 µM) | 32 (≈ 90.3 µM) |
| CC(=O)NC[C@H]1CN(c2ccc(/C=C/C(=O)c3ccc([N+](=O)[O-])cc3)cc2)C(=O)O1 | 32 (≈ 78.2 µM) | 32 (≈ 78.2 µM) | 32 (≈ 78.2 µM) | 32 (≈ 78.2 µM) | 32 (≈ 78.2 µM) | 32 (≈ 78.2 µM) |
| CC(=O)NC[C@H]1CN(c2ccc(/C=C/C(=O)c3c(F)cc(Cl)cc3Cl)cc2)C(=O)O1 | > 32 | > 32 | > 32 | > 32 | > 32 | > 32 |
